Data: patent US12365696B2, “Small-molecule focal adhesion kinase (FAK) inhibitors” (DANA-FARBER CANCER INSTITUTE, INC., priority 2019, dated 2025)

Key:
Assay in all cases: KINOMEscan
Type in all cases: binding
[1] = molecular target: ABL1(F317I)-nonphosphorylated (Homo sapiens (Human), UniProt P00519, F317I); conditions: 10000 nM, read-out: Percent Control
AKT3 = AKT3 (Homo sapiens (Human), UniProt Q9Y243); conditions: AKT3, 10000 nM; read-out: Percent Control
BIKE = BIKE (Homo sapiens (Human), UniProt Q9NSY1); conditions: 10000 nM, read-out: Percent Control
Chain of BIKE (Q9NSY1 whole entry): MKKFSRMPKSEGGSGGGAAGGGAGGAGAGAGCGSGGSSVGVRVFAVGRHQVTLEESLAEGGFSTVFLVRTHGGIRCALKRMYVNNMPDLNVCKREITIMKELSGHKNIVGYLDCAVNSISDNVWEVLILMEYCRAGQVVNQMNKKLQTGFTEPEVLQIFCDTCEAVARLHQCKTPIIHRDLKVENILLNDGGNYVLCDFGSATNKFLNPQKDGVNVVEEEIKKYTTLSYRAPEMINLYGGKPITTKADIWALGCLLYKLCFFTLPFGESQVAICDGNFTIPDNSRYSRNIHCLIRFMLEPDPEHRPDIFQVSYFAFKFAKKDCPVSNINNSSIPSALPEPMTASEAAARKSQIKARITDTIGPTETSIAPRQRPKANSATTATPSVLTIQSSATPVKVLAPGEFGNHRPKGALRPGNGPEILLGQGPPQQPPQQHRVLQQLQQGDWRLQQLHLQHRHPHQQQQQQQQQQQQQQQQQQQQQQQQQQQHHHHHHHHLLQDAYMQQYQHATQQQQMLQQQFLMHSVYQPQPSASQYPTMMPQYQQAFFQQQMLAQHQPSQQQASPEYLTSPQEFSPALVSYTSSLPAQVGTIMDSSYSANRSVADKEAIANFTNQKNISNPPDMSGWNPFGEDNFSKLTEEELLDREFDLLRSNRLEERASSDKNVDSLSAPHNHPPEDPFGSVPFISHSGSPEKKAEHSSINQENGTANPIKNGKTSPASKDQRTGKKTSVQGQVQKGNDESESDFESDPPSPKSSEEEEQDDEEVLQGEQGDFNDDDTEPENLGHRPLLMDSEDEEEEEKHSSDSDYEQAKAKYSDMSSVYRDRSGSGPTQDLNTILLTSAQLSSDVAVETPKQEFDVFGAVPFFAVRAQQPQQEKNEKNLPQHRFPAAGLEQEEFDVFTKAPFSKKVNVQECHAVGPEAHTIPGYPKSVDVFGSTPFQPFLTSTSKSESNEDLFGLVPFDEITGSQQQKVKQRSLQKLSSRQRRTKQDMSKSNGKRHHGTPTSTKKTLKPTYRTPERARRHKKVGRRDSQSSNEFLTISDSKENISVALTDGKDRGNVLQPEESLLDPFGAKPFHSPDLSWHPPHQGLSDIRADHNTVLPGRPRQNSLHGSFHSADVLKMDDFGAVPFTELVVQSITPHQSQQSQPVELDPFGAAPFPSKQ

BRK = BRK (Homo sapiens (Human), UniProt Q13882); conditions: 10000 nM, read-out: Percent Control
CAMK1 = CAMK1 (Homo sapiens (Human), UniProt Q14012); conditions: CAMK1, 10000 nM; read-out: Percent Control
CAMK1D = CAMK1D (Homo sapiens (Human), UniProt Q8IU85); conditions: 10000 nM, read-out: Percent Control
Chain of CAMK1D (Q8IU85 whole entry): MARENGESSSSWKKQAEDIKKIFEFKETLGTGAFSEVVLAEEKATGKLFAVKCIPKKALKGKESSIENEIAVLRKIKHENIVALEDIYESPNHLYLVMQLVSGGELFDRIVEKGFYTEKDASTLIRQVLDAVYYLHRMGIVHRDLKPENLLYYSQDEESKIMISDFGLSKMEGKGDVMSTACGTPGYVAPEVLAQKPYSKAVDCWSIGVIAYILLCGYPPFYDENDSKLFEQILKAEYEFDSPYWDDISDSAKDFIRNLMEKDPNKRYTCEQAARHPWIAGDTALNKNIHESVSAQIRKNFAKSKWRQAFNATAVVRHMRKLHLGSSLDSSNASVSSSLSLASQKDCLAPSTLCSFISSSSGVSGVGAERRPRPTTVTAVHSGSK

CAMK2D = CAMK2D (Homo sapiens (Human), UniProt Q13557); conditions: 10000 nM, read-out: Percent Control
CDK2 = CDK2 (Homo sapiens (Human), UniProt P24941); conditions: CDK2, 10000 nM; read-out: Percent Control
CDK9 = CDK9 (Homo sapiens (Human), UniProt P50750); conditions: CDK9, 10000 nM; read-out: Percent Control
CSNK1E = CSNK1E (Homo sapiens (Human), UniProt P49674); conditions: 10000 nM, read-out: Percent Control
DAPK2 = DAPK2 (Homo sapiens (Human), UniProt Q9UIK4); conditions: DAPK2, 10000 nM; read-out: Percent Control
Chain of DAPK2 (Q9UIK4 whole entry): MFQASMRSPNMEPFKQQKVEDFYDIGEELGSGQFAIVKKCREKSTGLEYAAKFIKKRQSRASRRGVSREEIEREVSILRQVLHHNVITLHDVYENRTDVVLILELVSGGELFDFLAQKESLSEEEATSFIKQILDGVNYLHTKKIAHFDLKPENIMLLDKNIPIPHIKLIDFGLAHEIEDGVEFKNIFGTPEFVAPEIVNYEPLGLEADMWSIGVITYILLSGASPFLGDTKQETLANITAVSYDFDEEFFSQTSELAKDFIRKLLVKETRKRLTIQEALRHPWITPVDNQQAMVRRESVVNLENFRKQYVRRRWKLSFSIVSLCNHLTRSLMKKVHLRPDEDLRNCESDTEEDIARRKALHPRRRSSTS

DRAK2 = DRAK2 (Homo sapiens (Human), UniProt O94768); conditions: DRAK2, 10000 nM; read-out: Percent Control
DYRK2 = DYRK2 (Homo sapiens (Human), UniProt Q92630); conditions: DYRK2, 10000 nM; read-out: Percent Control
EGFR(E746-A750del) = EGFR(E746-A750del) (Homo sapiens (Human), UniProt P00533, DEL746-750); conditions: 10000 nM, read-out: Percent Control
EGFR(L858R) = EGFR(L858R) (Homo sapiens (Human), UniProt P00533, L858R); conditions: 10000 nM, read-out: Percent Control
EPHA4 = EPHA4 (Homo sapiens (Human), UniProt P54764); conditions: EPHA4, 10000 nM; read-out: Percent Control
FRK = FRK (Homo sapiens (Human), UniProt P42685); conditions: 10000 nM, read-out: Percent Control
GRK7 = GRK7 (Homo sapiens (Human), UniProt Q8WTQ7); conditions: GRK7, 10000 nM; read-out: Percent Control
IKK-alpha = IKK-alpha (Homo sapiens (Human), UniProt O15111); conditions: 10000 nM, read-out: Percent Control
KIT(A829P) = KIT(A829P) (Homo sapiens (Human), UniProt P10721, A829P); conditions: 10000 nM, read-out: Percent Control
LATS2 = LATS2 (Homo sapiens (Human), UniProt Q9NRM7); conditions: LATS2, 10000 nM; read-out: Percent Control
MAP3K4 = MAP3K4 (Homo sapiens (Human), UniProt Q9Y6R4); conditions: MAP3K4, 10000 nM; read-out: Percent Control
MAP4K5 = MAP4K5 (Homo sapiens (Human), UniProt Q9Y4K4); conditions: MAP4K5, 10000 nM; read-out: Percent Control
Chain of MAP4K5 (Q9Y4K4 whole entry): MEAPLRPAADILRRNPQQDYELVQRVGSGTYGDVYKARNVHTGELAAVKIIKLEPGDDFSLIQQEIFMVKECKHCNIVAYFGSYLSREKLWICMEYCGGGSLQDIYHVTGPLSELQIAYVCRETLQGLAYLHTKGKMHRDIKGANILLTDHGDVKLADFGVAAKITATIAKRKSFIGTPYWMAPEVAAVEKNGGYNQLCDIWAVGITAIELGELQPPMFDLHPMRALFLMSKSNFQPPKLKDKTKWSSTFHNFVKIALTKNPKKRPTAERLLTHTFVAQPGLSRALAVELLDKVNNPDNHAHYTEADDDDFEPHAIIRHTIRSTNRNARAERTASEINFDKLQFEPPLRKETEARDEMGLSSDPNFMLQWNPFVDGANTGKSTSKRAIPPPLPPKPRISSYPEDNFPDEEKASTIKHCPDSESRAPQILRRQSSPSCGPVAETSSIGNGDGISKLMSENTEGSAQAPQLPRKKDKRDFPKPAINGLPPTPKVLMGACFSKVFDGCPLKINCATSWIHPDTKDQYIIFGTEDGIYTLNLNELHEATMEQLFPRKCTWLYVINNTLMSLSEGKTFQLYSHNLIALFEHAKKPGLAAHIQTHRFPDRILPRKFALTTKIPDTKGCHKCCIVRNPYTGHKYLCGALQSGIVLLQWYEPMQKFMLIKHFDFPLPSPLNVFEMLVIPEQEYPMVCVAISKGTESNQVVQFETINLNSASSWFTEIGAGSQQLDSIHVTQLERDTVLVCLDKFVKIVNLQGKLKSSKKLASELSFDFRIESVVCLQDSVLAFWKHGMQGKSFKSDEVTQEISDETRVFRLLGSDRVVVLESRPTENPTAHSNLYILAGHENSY

MLCK = MLCK (Homo sapiens (Human), UniProt Q32MK0); conditions: 10000 nM, read-out: Percent Control
MUSK = MUSK (Homo sapiens (Human), UniProt O15146); conditions: 10000 nM, read-out: Percent Control
PAK2 = PAK2 (Homo sapiens (Human), UniProt Q13177); conditions: PAK2, 10000 nM; read-out: Percent Control
Chain of PAK2 (Q13177 whole entry): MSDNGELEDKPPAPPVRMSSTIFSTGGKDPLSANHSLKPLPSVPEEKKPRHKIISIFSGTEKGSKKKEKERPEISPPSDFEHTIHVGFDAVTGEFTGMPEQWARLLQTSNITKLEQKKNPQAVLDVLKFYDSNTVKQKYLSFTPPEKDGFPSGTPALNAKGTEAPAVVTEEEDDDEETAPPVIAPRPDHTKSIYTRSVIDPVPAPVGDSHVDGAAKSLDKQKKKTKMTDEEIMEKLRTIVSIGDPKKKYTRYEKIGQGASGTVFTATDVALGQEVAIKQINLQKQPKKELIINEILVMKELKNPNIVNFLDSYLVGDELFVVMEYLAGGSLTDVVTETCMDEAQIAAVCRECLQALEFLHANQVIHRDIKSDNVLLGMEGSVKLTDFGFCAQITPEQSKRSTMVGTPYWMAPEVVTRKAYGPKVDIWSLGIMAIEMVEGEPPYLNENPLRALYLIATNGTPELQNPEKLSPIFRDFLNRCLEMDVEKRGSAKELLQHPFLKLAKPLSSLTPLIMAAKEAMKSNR

PIP5K2C = PIP5K2C (Homo sapiens (Human), UniProt Q8TBX8); conditions: 10000 nM, read-out: Percent Control
PRKCE = PRKCE (Homo sapiens (Human), UniProt Q02156); conditions: 10000 nM, read-out: Percent Control
PRKG2 = PRKG2 (Homo sapiens (Human), UniProt Q13237); conditions: PRKG2, 10000 nM; read-out: Percent Control
RET = RET (Homo sapiens (Human), UniProt P07949); conditions: 10000 nM, read-out: Percent Control
Chain of RET (P07949 29-1114): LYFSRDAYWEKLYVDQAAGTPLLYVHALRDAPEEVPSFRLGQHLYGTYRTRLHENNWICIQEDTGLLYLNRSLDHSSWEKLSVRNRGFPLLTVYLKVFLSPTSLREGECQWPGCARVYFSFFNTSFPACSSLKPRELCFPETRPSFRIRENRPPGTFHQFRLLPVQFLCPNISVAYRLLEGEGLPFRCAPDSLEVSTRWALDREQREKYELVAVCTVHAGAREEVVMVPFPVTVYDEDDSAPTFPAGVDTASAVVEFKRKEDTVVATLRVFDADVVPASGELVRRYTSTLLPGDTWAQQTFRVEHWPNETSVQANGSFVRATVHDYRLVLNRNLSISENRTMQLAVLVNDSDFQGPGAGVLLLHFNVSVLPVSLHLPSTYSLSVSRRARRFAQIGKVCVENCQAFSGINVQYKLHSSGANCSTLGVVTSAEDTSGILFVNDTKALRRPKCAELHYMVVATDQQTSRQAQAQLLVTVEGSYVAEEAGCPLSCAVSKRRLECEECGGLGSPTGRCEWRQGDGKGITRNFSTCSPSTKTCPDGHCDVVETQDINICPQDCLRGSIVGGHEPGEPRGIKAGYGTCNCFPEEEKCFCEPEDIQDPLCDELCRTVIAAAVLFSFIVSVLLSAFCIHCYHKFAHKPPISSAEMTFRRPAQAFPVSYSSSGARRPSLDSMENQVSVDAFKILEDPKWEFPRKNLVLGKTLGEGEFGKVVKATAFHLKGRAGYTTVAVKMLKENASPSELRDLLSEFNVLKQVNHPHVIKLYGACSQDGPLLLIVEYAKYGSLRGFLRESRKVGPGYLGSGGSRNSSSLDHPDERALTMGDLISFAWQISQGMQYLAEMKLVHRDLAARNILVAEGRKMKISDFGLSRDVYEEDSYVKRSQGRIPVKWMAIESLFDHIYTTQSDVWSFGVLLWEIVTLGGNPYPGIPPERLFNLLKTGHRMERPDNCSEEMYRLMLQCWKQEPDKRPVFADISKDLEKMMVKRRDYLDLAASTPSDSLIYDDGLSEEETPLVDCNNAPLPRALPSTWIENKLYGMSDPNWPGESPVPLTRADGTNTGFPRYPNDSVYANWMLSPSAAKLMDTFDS

RIPK2 = RIPK2 (Homo sapiens (Human), UniProt O43353); conditions: RIPK2, 10000 nM; read-out: Percent Control
ROCK2 = ROCK2 (Homo sapiens (Human), UniProt O75116); conditions: ROCK2, 10000 nM; read-out: Percent Control
SGK2 = SGK2 (Homo sapiens (Human), UniProt Q9HBY8); conditions: SGK2, 10000 nM; read-out: Percent Control
Chain of SGK2 (Q9HBY8 whole entry): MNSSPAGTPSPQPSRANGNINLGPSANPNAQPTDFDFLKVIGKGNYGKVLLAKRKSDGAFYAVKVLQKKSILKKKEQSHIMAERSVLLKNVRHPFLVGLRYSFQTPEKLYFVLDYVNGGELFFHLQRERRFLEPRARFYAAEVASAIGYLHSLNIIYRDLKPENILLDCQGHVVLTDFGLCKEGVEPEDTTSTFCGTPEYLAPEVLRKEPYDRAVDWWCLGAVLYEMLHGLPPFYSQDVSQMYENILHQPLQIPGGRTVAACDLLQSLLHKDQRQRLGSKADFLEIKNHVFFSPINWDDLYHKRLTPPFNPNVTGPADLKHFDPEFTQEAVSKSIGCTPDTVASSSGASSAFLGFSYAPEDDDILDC

WNK1 = WNK1 (Homo sapiens (Human), UniProt Q9H4A3); conditions: WNK1, 10000 nM; read-out: Percent Control
YES = YES (Homo sapiens (Human), UniProt P07947); conditions: 10000 nM, read-out: Percent Control

In the case of `COc1cc(N2CCC(N3CCN(C)CC3)CC2)ccc1Nc1ncc2c(n1)N(C)c1sc(C)nc1C(=O)N2` [Compound 3, 6-((2-methoxy-4-(4-(4-methylpiperazin-1-yl)piperidin-1-yl)phenyl)amino)-2,4-dimethyl-4,9-dihydro-10H-pyrimido[5,4-b]thiazolo[5,4-e][1,4]diazepin-10-one], the remaining binding at 10 µM [1] is reported as 3.8%, the remaining binding at 10 µM (AKT3) is reported as 100% and the remaining binding at 10 µM (BIKE) is reported as 73%. It also gave a remaining binding at 10 µM (BRK) of 66%, a remaining binding at 10 µM (CAMK1) of 100% and a remaining binding at 10 µM (CAMK1D) of 98%. It also gave a remaining binding at 10 µM (CAMK2D) of 82%, a remaining binding at 10 µM (CDK2) of 81% and a remaining binding at 10 µM (CDK9) of 74%. The remaining binding at 10 µM (CSNK1E) was 82%, the remaining binding at 10 µM (DAPK2) was 60% and the remaining binding at 10 µM (DRAK2) was 100%. For the same molecule, the remaining binding at 10 µM (DYRK2) was 100%, the remaining binding at 10 µM (EGFR(E746-A750del)) was 67% and the remaining binding at 10 µM (EGFR(L858R)) was 79%. For the same molecule, the remaining binding at 10 µM (EPHA4) was 87%, the remaining binding at 10 µM (FRK) was 37% and the remaining binding at 10 µM (GRK7) was 97%. The remaining binding at 10 µM (IKK-alpha) was 100%, the remaining binding at 10 µM (KIT(A829P)) was 47% and the remaining binding at 10 µM (LATS2) was 100%. For the same molecule, the remaining binding at 10 µM (MAP3K4) was 73%, the remaining binding at 10 µM (MAP4K5) was 82% and the remaining binding at 10 µM (MLCK) was 94%. The remaining binding at 10 µM (MUSK) was 92%, the remaining binding at 10 µM (PAK2) was 72% and the remaining binding at 10 µM (PIP5K2C) was 86%. The remaining binding at 10 µM (PRKCE) was 100%, the remaining binding at 10 µM (PRKG2) was 73% and the remaining binding at 10 µM (RET) was 99%. It also gave a remaining binding at 10 µM (RIPK2) of 88%, a remaining binding at 10 µM (ROCK2) of 100% and a remaining binding at 10 µM (SGK2) of 99%. It also gave a remaining binding at 10 µM (WNK1) of 100% and a remaining binding at 10 µM (YES) of 72%.
Work on `COc1cc(N2CCC(N3CCN(C)CC3)CC2)ccc1Nc1ncc2c(n1)N(C)c1sc(C)nc1C(=O)N2C` [Compound 5, 6-((2-methoxy-4-(4-(4-methylpiperazin-1-yl)piperidin-1-yl)phenyl)amino)-2,4,9-trimethyl-4,9-dihydro-10H-pyrimido[5,4-b]thiazolo[5,4-e][1,4]diazepin-10-one] yielded a remaining binding at 10 µM [1] of 48%, a remaining binding at 10 µM (AKT3) of 100% and a remaining binding at 10 µM (BIKE) of 100%. It also gave a remaining binding at 10 µM (BRK) of 100%, a remaining binding at 10 µM (CAMK1) of 92% and a remaining binding at 10 µM (CAMK1D) of 86%. For the same molecule, the remaining binding at 10 µM (CAMK2D) was 92%, the remaining binding at 10 µM (CDK2) was 100% and the remaining binding at 10 µM (CDK9) was 98%. It also gave a remaining binding at 10 µM (CSNK1E) of 100%, a remaining binding at 10 µM (DAPK2) of 83% and a remaining binding at 10 µM (DRAK2) of 100%. For the same molecule, the remaining binding at 10 µM (DYRK2) was 100%, the remaining binding at 10 µM (EGFR(E746-A750del)) was 79% and the remaining binding at 10 µM (EGFR(L858R)) was 100%. It also gave a remaining binding at 10 µM (EPHA4) of 68%, a remaining binding at 10 µM (FRK) of 99% and a remaining binding at 10 µM (GRK7) of 100%. The remaining binding at 10 µM (IKK-alpha) was 100%, the remaining binding at 10 µM (KIT(A829P)) was 100% and the remaining binding at 10 µM (LATS2) was 98%. For the same molecule, the remaining binding at 10 µM (MAP3K4) was 100%, the remaining binding at 10 µM (MAP4K5) was 91% and the remaining binding at 10 µM (MLCK) was 100%. It also gave a remaining binding at 10 µM (MUSK) of 100%, a remaining binding at 10 µM (PAK2) of 89% and a remaining binding at 10 µM (PIP5K2C) of 75%. For the same molecule, the remaining binding at 10 µM (PRKCE) was 100%, the remaining binding at 10 µM (PRKG2) was 100% and the remaining binding at 10 µM (RET) was 100%. For the same molecule, the remaining binding at 10 µM (RIPK2) was 95%, the remaining binding at 10 µM (ROCK2) was 100% and the remaining binding at 10 µM (SGK2) was 98%. It also gave a remaining binding at 10 µM (WNK1) of 89% and a remaining binding at 10 µM (YES) of 97%.
